Assay results: article PMC6071250 (2018)

How the values were obtained:
[1] = tested on: anti-AFT M1 aptamer (DNA, aptamer) ACTGCTAGAGATTTTCCACAT; assay: TIRE/LSPR spectral shift; conditions: 3 mM MgCl2, Na+ and K+ (HBB: 120 mM NaCl, 5 mM KCl; PBB: 137 mM NaCl, 2.7 mM KCl); HBB or PBB pH 7.4; stated not to bind; concentration tested not stated; immobilised aptamer
[2] = tested on: anti-AFT B1 aptamer (DNA, aptamer) GTTGGGCACGTGTTGTCTCTCTGTGTCTCGTGCCCTTCGCTAGGCCCACA; assay: TIRE/LSPR spectral shift; conditions: 3 mM MgCl2, Na+ and K+ (HBB: 120 mM NaCl, 5 mM KCl; PBB: 137 mM NaCl, 2.7 mM KCl); HBB or PBB pH 7.4; stated not to bind; concentration tested not stated; immobilised aptamer

With `C[C@@H]1Cc2c(Cl)cc(C(=O)N[C@@H](Cc3ccccc3)C(=O)O)c(O)c2C(=O)O1` as the molecule, how does the binding [1] read?
Its binding is “no”.

And the binding [2]?
Its binding is “no”.
